Experimental data: PMC3336786 (The FASEB Journal, 2012)
Substitutions are numbered along the chain they refer to.

Legend:
[1] = target: T1, RDLA2'V (Drosophila melanogaster, UniProt P25123, A301V); test: cell-based; assay type: cell-based
T1 sequence (P25123 45-606 A301V): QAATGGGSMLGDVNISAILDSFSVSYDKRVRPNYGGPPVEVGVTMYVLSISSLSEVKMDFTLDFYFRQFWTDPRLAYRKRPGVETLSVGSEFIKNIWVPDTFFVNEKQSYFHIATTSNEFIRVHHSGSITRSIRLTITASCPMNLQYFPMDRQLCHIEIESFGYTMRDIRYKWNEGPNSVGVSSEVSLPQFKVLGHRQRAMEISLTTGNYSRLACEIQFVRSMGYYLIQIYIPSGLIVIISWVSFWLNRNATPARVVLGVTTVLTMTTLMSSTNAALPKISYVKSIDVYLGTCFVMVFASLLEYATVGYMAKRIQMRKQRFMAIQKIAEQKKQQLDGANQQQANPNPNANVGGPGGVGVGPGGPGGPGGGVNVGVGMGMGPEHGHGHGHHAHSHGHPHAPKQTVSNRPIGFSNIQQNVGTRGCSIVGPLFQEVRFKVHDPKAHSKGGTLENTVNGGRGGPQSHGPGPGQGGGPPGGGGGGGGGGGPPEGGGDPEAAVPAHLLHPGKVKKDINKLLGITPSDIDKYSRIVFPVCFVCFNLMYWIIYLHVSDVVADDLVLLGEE

[2] = target: T2, RDLT6'V (Drosophila melanogaster, UniProt P25123, T305V); test: Two-electrode voltage clamp of RDLT6'V mutant receptors in Xenopus oocytes; assay type: cell-based
T2 sequence (P25123 45-606 T305V): T1 sequence (P25123 45-606 A301V) with V257A, T261V

SMILES | IC50 [1] | IC50 [2]
CC(C)(C)[C@]1(O)CC2OC(=O)CC23C(=O)OC2OC(=O)[C@H](O)C231 (stereo partly shown) [BB, bilobalide] | 224 µM | > 1000 µM
C[C@@H]1C(=O)O[C@H]2C[C@@]34[C@H]5C[C@@H](C(C)(C)C)[C@]36[C@@H](OC(=O)[C@@H]6O)O[C@@]4(C(=O)O5)[C@]21O [GA, ginkgolide A] | 360 µM | > 1000 µM
